The test system of test [1] is NPC-TW01 cells. Description: Mitochondrial Ca2+ concentration (Rhod-2, flow cytometry). The conditions noted are these: 24 hours. Format: cell-based, human. As for the experimental part:
(§1) The cytosolic and mitochondrial Ca^2+ concentrations were measured using fluo-3 and Rhod-2, respectively. The intensity of de-esterification of intracellular AM esters in the THF-ACGs treated or control tumor cells were measured after 30 mins of incubation. For each analysis, 10,000 events were recorded and results were analyzed using De Novo software.

In the next test the test system is NPC-TW01 xenograft. Briefly: NPC-TW01 s.c. xenograft antitumor experiment. As to conditions: squamostatin A 0.5 mg/kg i.p. every three days; paclitaxel 10 mg/kg weekly. Type of test: in vivo, BALB/c nude mice. On the procedure:
For the antitumor xenograft experiments, specific pathogen–free male athymic BALB/c nude mice, 6 to 8 weeks of age, were inoculated with 1 × 10^6 of exponential growth viable NPC-TW01 cells at the right flank of mice and mice were randomly divided into three groups (8 in each group). Tumor-implanted mice were treated i.p. with vehicle (5% DMSO/10% cremophor/85% saline) or 0.5 mg/kg squamostatin A every three days. Paclitaxel (10 mg/kg, once a week) was used as a positive control. Tumor size was measured every three days with a caliper, and tumor volume was calculated by the following formula: V = (1/2) × […]. At the end of the experiments, the animals were euthanized by carbon dioxide inhalation, followed by cervical dislocation. The animal experiments were supervised and approved by the Institutional Animal Care and Use Committee (IACUC) of China Medical University (Taichung, Taiwan). All animal studies were performed in accordance with the Animal Protection Act of Taiwan.

For test [2], the system named is NPC-TW01 cells. Briefly: Growth inhibition assay (MTT), NPC-TW01. Type of test: cell-based. The conditions noted are these: Homo sapiens. On the procedure:
(§2) The colorimetric assay for cellular growth and survival was performed as described by Hansen et al., with slight modifications. Pre-determinate numbers of cells were seeded in a 96-well microplate and designated compounds at various concentrations were added for the indicated time period. MTT containing solution was added after compound treatment and conversion of MTT to formazan by metabolically viable cells was measured by absorbance at 490 nm in a 96-well microtiter plate reader. The percentage of conversion by mock-treated control cells was used to evaluate the effect of the chemicals on cell growth and to determine the IC50 concentration.

The subject of a further test is HONE-1 cells. Briefly: Growth inhibition assay (MTT), HONE-1. The conditions noted are these: Homo sapiens, HONE1, treated for three generations, read-out: Growth inhibitory activity IC50, HONE-1. Type of test: cell-based. On the procedure:
as §2

The next test deals with FaDu cells. Description: Growth inhibition assay (MTT), FaDu. Type of test: cell-based. The conditions noted are these: Homo sapiens, treated for three generations, read-out: Growth inhibitory activity IC50, FaDu. As for the experimental part: as §2
A further test deals with Jurkat cells. Description: Growth inhibition assay (MTT), Jurkat. Format: cell-based. As to conditions: Homo sapiens, treated for three generations, read-out: Growth inhibitory activity IC50, Jurkat. As for the experimental part: as §2
For the next test, the system named is H226 cells. Description: Growth inhibition assay (MTT), H226. Format: cell-based. The conditions noted are these: Homo sapiens, NCI-H226, treated for three generations, read-out: Growth inhibitory activity IC50, H226. As for the experimental part:
as §2

For the next test, the system named is Hep 3B cells. Briefly: Growth inhibition assay (MTT), Hep 3B. Format: cell-based. As to conditions: Homo sapiens, Hep3B, treated for three generations, footnote a, read-out: Growth inhibitory activity IC50, Hep 3B. On the procedure: as §2
The test system of another test is HT-1080 cells. Description: Growth inhibition assay (MTT), HT-1080. Format: cell-based. As to conditions: Homo sapiens, treated for three generations, read-out: Growth inhibitory activity IC50, HT-1080. As for the experimental part:
as §2

In the next test the test system is Detroit 551 cells. Description: Growth inhibition assay (MTT), Detroit 551 normal fibroblasts. Format: cell-based. As to conditions: Homo sapiens, treated for three generations, read-out: Growth inhibitory activity IC50, Detroit 551. On the procedure:
as §2

In the next test the test system is TW01-R-MTX cells. Briefly: Growth inhibition assay (MTT), methotrexate-resistant NPC-TW01. Type of test: cell-based. The conditions noted are these: Homo sapiens, drug-resistant cell line, three generations, read-out: Growth inhibitory activity IC50, TW01-R-MTX. As for the experimental part: as §2
In the next test the test system is HONE R-MTX cells. Description: Growth inhibition assay (MTT), methotrexate-resistant HONE-1. Format: cell-based. As to conditions: Homo sapiens, HONE1, drug-resistant cell line, three generations, read-out: Growth inhibitory activity IC50, HONE R-MTX. On the procedure:
as §2

Test [3] has as its system NPC-TW01 cells. Description: Caspase inhibition assay (MTT cell survival). Type of test: cell-based, human. The conditions noted are these: pretreated 1 hour, squamostatin A for 72 hours. On the procedure:
For caspase inhibition experiments, cell-permeable and irreversible inhibitors of caspase-12 were added to the medium one hour before the administration of squamostatin A. Cell survival was determined using the MTT assay to evaluate the effects of the test compound on cell growth, as described previously.

Another test deals with OECM-1 cells. Description: Growth inhibition assay (MTT), OECM-1. Type of test: cell-based. As to conditions: Homo sapiens, OECM1, Supplemental Table 1, read-out: Growth inhibitory activity IC50, OECM-1. On the procedure:
as §2

A further test relates to SCC-15 cells. Description: Growth inhibition assay (MTT), SCC-15. Format: cell-based. As to conditions: Homo sapiens, Supplemental Table 1, read-out: Growth inhibitory activity IC50, SCC-15. On the procedure:
as §2

The subject of another test is SCC-25 cells. Description: Growth inhibition assay (MTT), SCC-25. Type of test: cell-based. As to conditions: Homo sapiens, Supplemental Table 1, read-out: Growth inhibitory activity IC50, SCC-25. As for the experimental part: as §2
The test system of test [4] is NPC-TW01 cells. Briefly: Cell cycle distribution by PI staining and flow cytometry. Type of test: cell-based, human. As to conditions: IC50 concentration, 24 hours. As for the experimental part: To measure the THF-ACGs effect on the cell cycle distribution, the THF-ACGs-treated cells were collected, fixed with ice-cold alcohol, treated with RNase and stained with propidium iodide. The DNA content of each sample was evaluated by FACScan flow cytometer and ratio of cell cycle phases were determined by ModFit software (Verity Software House Inc., Topsham, ME).

The subject of test [5] is NPC-TW01 cells. Briefly: Annexin-V/PI apoptosis assay by flow cytometry. The conditions noted are these: IC50 concentration, 36 hours. Type of test: cell-based, human. As for the experimental part: THF-ACGs induced apoptotic phenomena were monitored by The Annexin V-FITC Apoptosis Detection Kit II (BD Biosciences Pharmingen) according to the manufacturer’s instructions. Briefly, THF-ACGs-treated or control cells were collected and resuspended in 400 μL 1 × binding buffer at a concentration of ~1 × 10^6 cells/ml, and 5 μL of purified recombinant Annexin V and PI reagent were added. After incubation at room temperature for 15 min in the dark, the intensity of Annexin V and PI was measured by flow cytometer immediately and results were analyzed using De Novo software (MultiCycle AV Plug-in for FCS Express).
On the technique in general: Flow cytometry measures light scatter and fluorescence of single cells or particles in a stream.

Test [6] relates to NPC-TW01 cells. Description: Cytosolic Ca2+ concentration (Fluo-3, flow cytometry). Format: cell-based, human. The conditions noted are these: IC50 concentration, 24 hours. As for the experimental part:
as §1

The subject of test [7] is NPC-TW01 cells. Briefly: Mitochondrial membrane potential (DiOC6 staining, flow cytometry). Type of test: cell-based, human. As to conditions: IC50 concentration, 24 hours. On the procedure:
To measure the change of mitochondrial potential transition (MPT), THF-ACGs treated cells were labeled with 100 nM DiOC6, harvested and suspended in PBS. The intensity of DiOC6 in cells was measured using FACScan flow cytometer.

Where [8] appears, read: treated for three generations, read-out: Growth inhibitory activity IC50, NPC-TW01.

Read-outs that look alike come from different tables or passages of the source. * marks the point of attachment. Cbz = O=C(OCc1ccccc1)*; CH2F = FC*

In the case of `NCCOB(c1ccccc1)c1ccccc1` [2-APB, 2-Aminoethoxydiphenyl borate, reference compound], the “Content of mitochondrial calcium on squamostatin A treatment in the presence of 2-APB” value with NPC-TW01 cells [1] (2-APB 10 μM, squamostatin A IC50 concentration) is reported as “diminish the content of mitochondrial calcium”.
On to `CC(=O)O[C@H]1C(=O)[C@@]2(C)[C@H]([C@H](OC(=O)c3ccccc3)[C@]3(O)C[C@H](OC(=O)[C@H](O)[C@@H](NC(=O)c4ccccc4)c4ccccc4)C(C)=C1C3(C)C)[C@]1(OC(C)=O)CO[C@@H]1C[C@@H]2O` [paclitaxel, Paclitaxel], for which the “Overall tumor volume between weeks 6 and 13” value with NPC-TW01 xenograft was “tumor continued growth slowly”.
Regarding `CN(Cc1cnc2nc(N)nc(N)c2n1)c1ccc(C(=O)N[C@@H](CCC(=O)O)C(=O)O)cc1` [methotrexate, reference compound], the IC50 (commonly the concentration at which inhibition is half-maximal) in the test with NPC-TW01 cells [2] (setting [8]) was 43 nM; in the test on HONE-1 cells it was 65.7 nM; in the test with FaDu cells, 92.1 nM; in the test with Jurkat cells it was 18.3 nM; with H226 cells, 39.8 nM; in the test on Hep 3B cells it was over 2000 nM. Further, the IC50 in the test with HT-1080 cells amounted to 14.1 nM; in the test with Detroit 551 cells (footnote a), 2000 nM; with TW01-R-MTX cells (footnote b), 1900 µM; in the test with HONE R-MTX cells (footnote a), 39.6 µM.
As to Cbz-ATAD-CH2F, the “Effect of caspase-12 inhibitor pretreatment on squamostatin A toxicity against NPC-TW01 cell growth” value in the test with NPC-TW01 cells [3] was “significantly block the toxicity of squamostatin A”.
For the compound `CCCCCCCCCCCC[C@@H](O)[C@H]1CC[C@@H]([C@@H](O)CCCCC(=O)CCCCCCCC2=C[C@H](C)OC2=O)O1` [corossolone], the IC50 in the test on NPC-TW01 cells [2] (Supplemental Table 1, read-out: Growth inhibitory activity IC50, NPC-TW01 (Supplemental Table 1)) was 31.3 nM; in the test on NPC-TW01 cells [2] (setting [8]), 121 nM; in the test with HONE-1 cells it was 132 nM; with FaDu cells (footnote a), over 2000 nM; in the test on Jurkat cells, 0.3 nM; with H226 cells (footnote a) it was over 2000 nM. Besides, the IC50 in the test with Hep 3B cells is over 2000 nM; in the test with HT-1080 cells, 705 nM; in the test on Detroit 551 cells, 354 nM; with TW01-R-MTX cells, 0.0288 µM; with HONE R-MTX cells, 0.147 µM; in the test on OECM-1 cells it was over 2000 nM. Moreover, the IC50 in the test on SCC-15 cells and in the test with SCC-25 cells was over 2000 nM each time. Besides, in the test with NPC-TW01 cells [4], the “Cell cycle distribution, G0/G1” value is 40.9%. The “Cell cycle distribution, G2/M” value in the test with NPC-TW01 cells [4] was determined as 30.5%. Besides, the “Cell cycle distribution, S” value in the test with NPC-TW01 cells [4] was found to be 28.6%. In addition, the “Annexin-V positive, E (early phase apoptosis)” value in the test with NPC-TW01 cells [5] is given as 4.9%. The “Annexin-V positive, L (late phase apoptosis)” value with NPC-TW01 cells [5] is reported as 7.4%. In addition, the “Ca2+ Cytosol (Fluo-3) GEO mean value, Treated” value in the test on NPC-TW01 cells [6] is on record as 149.2. In the test on NPC-TW01 cells [1] (IC50 concentration), the “Ca2+ Mitochondria (Rho-2) GEO mean value, Treated” value came out at 149.2. In the test on NPC-TW01 cells [1] (IC50 concentration), the “Increase of mitochondrial Ca2+ (Rho-2) vs Ctrl” value is 29%. Also, the “Decrease of mitochondrial membrane potential vs Ctrl” value in the test on NPC-TW01 cells [7] is recorded as 27%. Further, in the test with NPC-TW01 cells [7], the “Mitochondrial membrane potential GEO mean value, Treated” value came to 777.

The values are drawn from publication PMC5175284, “Mechanistic Study of Tetrahydrofuran- acetogenins In Triggering Endoplasmic Reticulum Stress Response-apotoposis in Human Nasopharyngeal Carcinoma” (Scientific Reports, 2016).
